From PubChem BioAssay (NCI)
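48-hour exposure; five concentrations; linearly interpolated endpoints. The concentration for 50% growth inhibition is given as GI50. TGI is the concentration that stops growth completely.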 Where a SMILES comes first, the peptide text is derived from it. The star is where a group is joined. Boc = CC(C)(C)OC(=O)*

How the values were obtained:
Assay in all cases: inhibition of tumour cell growth, NCI panel, 48 h
[1] = system: LOX IMVI melanoma
[2] = system: IGROV1 ovarian
[3] = system: DU-145 prostate
[4] = system: RXF 393 renal
[5] = system: SNB-78 CNS
[6] = system: DMS 114 small cell lung
[7] = system: LXFL 529 NSCLC
[8] = system: KM20L2 colon
[9] = system: DLD-1 colon
[10] = system: DMS 273 small cell lung
[11] = system: HOP-18 NSCLC
[12] = system: M19-MEL melanoma

Compound	TGI [1] [µM]	TGI [2] [µM]	TGI [3] [µM]	TGI [4] [µM]	also measured
C[C@H]1O[C@@H](c2c(O)ccc3ccccc23)C[C@@H](N(C)C)C1O (stereo not given in full)	> 100	> 100	> 100	77.3	–
CCOC(=O)c1cc2c(ccc3cc(C(=O)OCC)[nH]c32)[nH]1	> 100	> 100	> 100	66.8	–
COc1ccc(N(C)S(=O)(=O)c2ccccc2)cc1	> 100	> 100	> 100	> 100	–
CCOC(=O)c1ccc(Nc2nc3cc(C(F)(F)F)ccc3nc2-c2ccccc2)cc1	> 100	> 100	> 100	98	–
O=C(Nc1cc(C(=O)Nc2cccc(S(=O)(=O)O)c2)cc(C(=O)Nc2cccc(S(=O)(=O)O)c2)c1)c1cccc(C(=O)Nc2cc(C(=O)Nc3cccc(S(=O)(=O)O)c3)cc(C(=O)Nc3cccc(S(=O)(=O)O)c3)c2)c1	> 100	> 100	> 100	> 100	–
Cc1ccc2c(c1)C(=O)/C(=C\c1ccccc1)CCS2(=O)=O	44.3	28.7	21.8	–	–
COc1c(C)c(C/C=C(\C)CCCCO[Si](C(C)C)(C(C)C)C(C)C)c(OC)c2ccccc12	> 100	> 100	> 100	> 100	–
CC(=N/NC(=S)N1CCCCC1)/C(=N\NC(=S)N1CCCCC1)c1ccccc1	25.9	3.27	0.973	2.82	–
COc1ccc(NC(=O)CC(=O)N2N=C(N3CCCCC3)CC2c2ccccc2)cc1 (stereo not given)	> 100	> 100	> 100	> 100	–
O=C1/C(=C/c2cccnc2)C(n2cccc2)c2c(Br)sc(Br)c21 (stereo not given)	3.89	3.38	3.53	4.45	–
OC12c3ccccc3C1(N1CCOCC1)CCCCC21OCCCO1 (stereo not given)	> 100	> 100	–	> 100	TGI [5]: > 100 µM; TGI [6]: > 100 µM; TGI [7]: > 100 µM; TGI [8]: > 100 µM; TGI [9]: > 100 µM; TGI [10]: > 100 µM; TGI [11]: > 100 µM
CC(NC(=O)C(NC(=O)OC(C)(C)C)C(C)C)C(=O)N1CCCC1C(=O)NCC(=O)NC(C(=O)NCC(=O)O)C(C)C (stereo not given) (Boc-VAPGVG-OH; configuration not given here)	> 100	> 100	> 100	–	–
COc1cc2cc(C(=O)N3CC(CCl)c4c3cc([N+](=O)[O-])c3ccccc43)[nH]c2c(OC)c1OC (stereo not given)	> 100	> 100	> 100	> 100	–
COc1ccc2cc(C(C)C(O)c3cc(F)c(F)c(F)c3F)ccc2c1 (stereo not given)	> 100	> 100	> 100	–	–
CC1Cc2c(Br)nc(N)nc2NC1=O (stereo not given)	> 100	> 100	> 100	–	–
CSC1=C(C(=O)Nc2ccc(Cl)cc2)C(N)=NC1=O	> 100	> 100	> 100	> 100	–
CC1CN=C(Nc2ccc(F)cc2F)S1 (stereo not given)	> 100	> 100	> 100	–	–

Compound	TGI [1] [µM]	TGI [2] [µM]	TGI [3] [µM]	TGI [4] [µM]	also measured
COc1ccccc1C1SCC(=O)N1c1ccc(-n2c(-c3ccccc3)nc3ccccc3c2=O)cc1 (stereo not given)	> 100	> 100	> 100	–	–
C/C=C/c1c(O)c(=O)c2c(OC)cc(OC)c3c4c(OC)cc(OC)c5c(=O)c(O)c(/C=C/C)c(c1c23)c54	57.4	19.2	23.4	–	–
CC(=O)C1C(=O)C(=O)N(c2cccc(C)c2C)C1=O (stereo not given)	> 100	> 100	> 100	–	–
CC(C)CNC(=O)CCc1cccc2c1oc1c(CCN)cccc12	27.9	23.7	33.8	31.4	–
CC(C)=CCC[C@@H](C)C1=C(O)C(Nc2ccccc2Br)=C(C)C(=O)C1=O	> 100	37.3	20.7	32.9	–
COc1cc(O)cc(/C=C/c2ccc(O)cc2)c1	–	> 100	> 100	> 100	–
C/C=C(C)/C=C/CC(C)CCC=C(C)C (stereo not given)	> 100	> 100	> 100	> 100	–
CCOC(=O)Cc1nnc2c(-c3ccccc3)nc3ccccc3n12	> 100	> 100	73.4	36.4	–
O=C1/C(=C\c2ccc(Cl)cc2Cl)Sc2scc(-c3cccc([N+](=O)[O-])c3)[n+]21	3.47	22.5	29	14.6	–
CC(C)(C)OC(=O)N(O)[C@@H]1C=C[C@H](n2cnc3c(N)ncnc32)C1	> 100	> 100	> 100	> 100	–
N#Cc1c(-c2ccc(Cl)cc2)cc(-c2ccc(Nc3ccnc4cc(C(F)(F)F)ccc34)cc2)[nH]c1=O	> 23.5	> 100	> 48.5	22.6	–
O=C1CCCCC/C1=C\c1ccc(F)cc1	> 100	> 100	> 100	–	–
CCN(CC)CC(=O)Nc1c(C(N)=O)nnn1Cc1cc(Cl)c(C(=O)c2ccc(Cl)cc2)c(Cl)c1	32.1	74.4	90.2	23.8	–
CCCCON1C[C@@H](O)C(O)[C@@H](O)C1 (stereo not given in full)	> 100	> 100	> 100	> 100	–
COc1cccc(-c2cc(=O)c3cc(OC)c(OC)cc3[nH]2)c1	> 100	> 100	–	> 100	TGI [5]: > 100 µM; GI50 [6]: 54.4 µM; TGI [6]: > 100 µM; TGI [12]: > 100 µM; TGI [7]: > 100 µM; TGI [8]: > 100 µM; TGI [9]: > 100 µM; TGI [10]: > 100 µM; GI50 [4]: 33.3 µM
OCC(CN1CCCCC1)(CN1CCCCC1)CN1CCCCC1	> 100	> 100	> 100	> 100	–
CC(C)/C(Cl)=N\OC(=O)Nc1cccc(F)c1	5.31	36.2	32.5	31	–
